# Source: patent publication US20260022142A1, “MACROCYCLIC IMMUNOMODULATORS” (Bristol-Myers Squibb Company, priority 2022, published 2026)
# Bridge positions count the residues as written; N and C are the ends. Square brackets hold non-standard residues; d marks the D form. Peptide text beside a SMILES is read from it. * marks the point of attachment. Bip = N[C@@H](Cc1ccc(-c2ccccc2)cc1)C(=O)O; Phe(3-Me) = Cc1cccc(C[C@H](N)C(=O)O)c1; Cha = N[C@@H](CC1CCCCC1)C(=O)O; Cit = NC(=O)NCCC[C@H](N)C(=O)O; Carboxymethyl = O=C(O)C*; Orn = NCCC[C@H](N)C(=O)O; Aun = NCCCCCCCCCCC(=O)O; Dab = NCC[C@H](N)C(=O)O; Dap = NC[C@H](N)C(=O)O
# Target: T1, PD-1/PD-L1 interaction (PE-labeled human PD-L1-Ig binding to Jurkat cell line over-expressing human PD-1) (Homo sapiens, UniProt Q15116)
# T1 construct: expressed in transfected cells; host or cells: Jurkat
# Experiment: Jurkat-PD-1 Cell Binding High-Content Screening Assay (CBA)
# Type: cell-based
# Conditions: Jurkat cell line over-expressing human PD-1; PE-labeled PD-L1-Ig 20 nM final; read-out: Jurkat hPD1-PDL1 IC50
# Method in brief: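 First, compound is added to PD-1-expressing Jurkat cells in serum-containing DMEM and left 2 h at 37° C. Next, PE-conjugated PD-L1-Ig is introduced at 20 nM final concentration for 1 hour. Finally, cells are fixed in 4% paraformaldehyde with Hoechst 33342, washed and imaged.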
# T1 sequence (Q15116 25-288): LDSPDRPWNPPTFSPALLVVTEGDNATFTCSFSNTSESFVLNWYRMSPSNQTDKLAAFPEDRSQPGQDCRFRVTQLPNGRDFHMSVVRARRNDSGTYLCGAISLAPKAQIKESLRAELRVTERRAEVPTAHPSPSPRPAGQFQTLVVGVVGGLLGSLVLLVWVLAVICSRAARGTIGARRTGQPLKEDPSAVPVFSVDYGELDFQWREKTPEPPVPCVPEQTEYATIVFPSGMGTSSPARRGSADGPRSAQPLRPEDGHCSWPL
row,IC50 [µM],Compound
1,0.0159,Cc1cccc(C[C@@H]2NC(=O)[C@H](CC(=O)O)NC(=O)[C@H](Cc3ccc(OCC(=O)O)cc3)NC(=O)[C@H](CN)NC(=O)CSC[C@@H](C(=O)N[C@@H](C)C(=O)N[C@@H](CN)C(=O)NCCCCCCCCCCC(=O)O)NC(=O)[C@H]([C@@H](C)O)NC(=O)[C@H](C(C)C)NC(=O)[C@H](CC3CCCCC3)NC(=O)[C@H](CCN)NC(=O)[C@@H](CC(C)C)NC(=O)[C@H](CCCN)NC(=O)[C@H](CCCNC(N)=O)NC(=O)[C@H](Cc3ccc(-c4ccccc4)cc3)NC(=O)[C@H](C(C)C)NC2=O)c1 [Compound 1057] ({CH2CO}-[Dap]Y(Carboxymethyl)D[Phe(3-Me)]V[Bip][Cit][Orn][dL][Dab][Cha]VTCA[Dap][Aun]-OH; thioether N-14)
2,0.0572,Cc1cccc(C[C@@H]2NC(=O)[C@H](CC(=O)O)NC(=O)[C@H](Cc3ccc(OCC(=O)O)cc3)NC(=O)[C@H](Cc3ccc(OCC(=O)O)cc3)NC(=O)CSC[C@@H](C(=O)N[C@@H](CCCCN)C(=O)NCCCCCCCCCCC(=O)O)NC(=O)[C@H](CO)NC(=O)[C@H](C(C)C)NC(=O)[C@H](CC3CCCCC3)NC(=O)[C@H](CCN)NC(=O)[C@@H](CC(C)C)NC(=O)[C@H](CCCN)NC(=O)[C@H](C(C)C)NC(=O)[C@H](Cc3ccc(-c4ccccc4)cc3)NC(=O)[C@H](CC(C)C)NC2=O)c1 [Compound 1058] ({CH2CO}-Y(Carboxymethyl)Y(Carboxymethyl)D[Phe(3-Me)]L[Bip]V[Orn][dL][Dab][Cha]VSCK[Aun]-OH; thioether N-14)
3,0.0486,Cc1cccc(C[C@@H]2NC(=O)[C@H](CC(=O)O)NC(=O)[C@H](Cc3ccc(OCC(=O)O)cc3)NC(=O)[C@H](Cc3ccc(OCC(=O)O)cc3)NC(=O)CSC[C@@H](C(=O)N[C@@H](CCCN)C(=O)NCCCCCCCCCCC(=O)O)NC(=O)[C@H](CO)NC(=O)[C@H](C(C)C)NC(=O)[C@H](CC3CCCCC3)NC(=O)[C@H](CCN)NC(=O)[C@@H](CC(C)C)NC(=O)[C@H](CCCN)NC(=O)[C@H](C(C)C)NC(=O)[C@H](Cc3ccc(-c4ccccc4)cc3)NC(=O)[C@H](CC(C)C)NC2=O)c1 [Compound 1059] ({CH2CO}-Y(Carboxymethyl)Y(Carboxymethyl)D[Phe(3-Me)]L[Bip]V[Orn][dL][Dab][Cha]VSC[Orn][Aun]-OH; thioether N-14)
4,0.0898,Cc1cccc(C[C@@H]2NC(=O)[C@H](CC(=O)O)NC(=O)[C@H](Cc3ccc(OCC(=O)O)cc3)NC(=O)[C@H](Cc3ccc(OCC(=O)O)cc3)NC(=O)CSC[C@@H](C(=O)N[C@@H](CCN)C(=O)NCCCCCCCCCCC(=O)O)NC(=O)[C@H](CO)NC(=O)[C@H](C(C)C)NC(=O)[C@H](CC3CCCCC3)NC(=O)[C@H](CCN)NC(=O)[C@@H](CC(C)C)NC(=O)[C@H](CCCN)NC(=O)[C@H](C(C)C)NC(=O)[C@H](Cc3ccc(-c4ccccc4)cc3)NC(=O)[C@H](CC(C)C)NC2=O)c1 [Compound 1060] ({CH2CO}-Y(Carboxymethyl)Y(Carboxymethyl)D[Phe(3-Me)]L[Bip]V[Orn][dL][Dab][Cha]VSC[Dab][Aun]-OH; thioether N-14)
5,0.0562,Cc1cccc(C[C@@H]2NC(=O)[C@H](CC(=O)O)NC(=O)[C@H](Cc3ccc(OCC(=O)O)cc3)NC(=O)[C@H](Cc3ccc(OCC(=O)O)cc3)NC(=O)CSC[C@@H](C(=O)N[C@@H](CN)C(=O)NCCCCCCCCCCC(=O)O)NC(=O)[C@H](CO)NC(=O)[C@H](C(C)C)NC(=O)[C@H](CC3CCCCC3)NC(=O)[C@H](CCN)NC(=O)[C@@H](CC(C)C)NC(=O)[C@H](CCCN)NC(=O)[C@H](C(C)C)NC(=O)[C@H](Cc3ccc(-c4ccccc4)cc3)NC(=O)[C@H](CC(C)C)NC2=O)c1 [Compound 1061] ({CH2CO}-Y(Carboxymethyl)Y(Carboxymethyl)D[Phe(3-Me)]L[Bip]V[Orn][dL][Dab][Cha]VSC[Dap][Aun]-OH; thioether N-14)
6,0.0163,Cc1cccc(C[C@@H]2NC(=O)[C@H](CC(=O)O)NC(=O)[C@H](Cc3ccc(OCC(=O)O)cc3)NC(=O)[C@H](CN)NC(=O)CSC[C@@H](C(=O)N[C@@H](CCN)C(=O)NCCCCCCCCCCC(=O)O)NC(=O)[C@H]([C@@H](C)O)NC(=O)[C@H](C(C)C)NC(=O)[C@H](CC3CCCCC3)NC(=O)[C@H](CCN)NC(=O)[C@@H](CC(C)C)NC(=O)[C@H](CCCN)NC(=O)[C@H](CCCNC(N)=O)NC(=O)[C@H](Cc3ccc(-c4ccccc4)cc3)NC(=O)[C@H](C(C)C)NC2=O)c1 [Compound 1064] ({CH2CO}-[Dap]Y(Carboxymethyl)D[Phe(3-Me)]V[Bip][Cit][Orn][dL][Dab][Cha]VTC[Dab][Aun]-OH; thioether N-14)
7,0.0135,Cc1cccc(C[C@@H]2NC(=O)[C@H](CC(=O)O)NC(=O)[C@H](Cc3ccc(OCC(=O)O)cc3)NC(=O)[C@H](CN)NC(=O)CSC[C@@H](C(=O)N[C@@H](CN)C(=O)NCCCCCCCCCCC(=O)O)NC(=O)[C@H]([C@@H](C)O)NC(=O)[C@H](C(C)C)NC(=O)[C@H](CC3CCCCC3)NC(=O)[C@H](CCN)NC(=O)[C@@H](CC(C)C)NC(=O)[C@H](CCCN)NC(=O)[C@H](CCCNC(N)=O)NC(=O)[C@H](Cc3ccc(-c4ccccc4)cc3)NC(=O)[C@H](C(C)C)NC2=O)c1 [Compound 1065] ({CH2CO}-[Dap]Y(Carboxymethyl)D[Phe(3-Me)]V[Bip][Cit][Orn][dL][Dab][Cha]VTC[Dap][Aun]-OH; thioether N-14)
8,0.0139,Cc1cccc(C[C@@H]2NC(=O)[C@H](CC(=O)O)NC(=O)[C@H](Cc3ccc(OCC(=O)O)cc3)NC(=O)[C@H](CN)NC(=O)CSC[C@@H](C(=O)N[C@@H](C)C(=O)N[C@@H](CCCCN)C(=O)NCC(=O)NCCCCCCCCCCC(=O)O)NC(=O)[C@H]([C@@H](C)O)NC(=O)[C@H](C(C)C)NC(=O)[C@H](CC3CCCCC3)NC(=O)[C@H](CCN)NC(=O)[C@@H](CC(C)C)NC(=O)[C@H](CCCN)NC(=O)[C@H](CCCNC(N)=O)NC(=O)[C@H](Cc3ccc(-c4ccccc4)cc3)NC(=O)[C@H](C(C)C)NC2=O)c1 [Compound 1066] ({CH2CO}-[Dap]Y(Carboxymethyl)D[Phe(3-Me)]V[Bip][Cit][Orn][dL][Dab][Cha]VTCAKG[Aun]-OH; thioether N-14)
9,0.0285,Cc1cccc(C[C@@H]2NC(=O)[C@H](CC(=O)O)NC(=O)[C@H](Cc3ccc(OCC(=O)O)cc3)NC(=O)[C@H](Cc3ccc(OCC(=O)O)cc3)NC(=O)CSC[C@@H](C(=O)NCC(=O)N[C@@H](CCCN)C(=O)NCC(=O)NCCCCCCCCCCC(=O)O)NC(=O)[C@H](CO)NC(=O)[C@H](C(C)C)NC(=O)[C@H](CC3CCCCC3)NC(=O)[C@H](CCN)NC(=O)[C@@H](CC(C)C)NC(=O)[C@H](CCCN)NC(=O)[C@H](C(C)C)NC(=O)[C@H](Cc3ccc(-c4ccccc4)cc3)NC(=O)[C@H](CC(C)C)NC2=O)c1 [Compound 1067] ({CH2CO}-Y(Carboxymethyl)Y(Carboxymethyl)D[Phe(3-Me)]L[Bip]V[Orn][dL][Dab][Cha]VSCG[Orn]G[Aun]-OH; thioether N-14)
10,0.0104,Cc1cccc(C[C@@H]2NC(=O)[C@H](CC(=O)O)NC(=O)[C@H](Cc3ccc(OCC(=O)O)cc3)NC(=O)[C@H](CN)NC(=O)CSC[C@@H](C(=O)N[C@@H](C)C(=O)N[C@@H](CCCN)C(=O)NCC(=O)NCCCCCCCCCCC(=O)O)NC(=O)[C@H]([C@@H](C)O)NC(=O)[C@H](C(C)C)NC(=O)[C@H](CC3CCCCC3)NC(=O)[C@H](CCN)NC(=O)[C@@H](CC(C)C)NC(=O)[C@H](CCCN)NC(=O)[C@H](CCCNC(N)=O)NC(=O)[C@H](Cc3ccc(-c4ccccc4)cc3)NC(=O)[C@H](C(C)C)NC2=O)c1 [Compound 1068] ({CH2CO}-[Dap]Y(Carboxymethyl)D[Phe(3-Me)]V[Bip][Cit][Orn][dL][Dab][Cha]VTCA[Orn]G[Aun]-OH; thioether N-14)
11,0.0417,Cc1cccc(C[C@@H]2NC(=O)[C@H](CC(=O)O)NC(=O)[C@H](Cc3ccc(OCC(=O)O)cc3)NC(=O)[C@H](Cc3ccc(OCC(=O)O)cc3)NC(=O)CSC[C@@H](C(=O)NCC(=O)N[C@@H](CCCCN)C(=O)NCCCCCCCCCCC(=O)O)NC(=O)[C@H](CO)NC(=O)[C@H](C(C)C)NC(=O)[C@H](CC3CCCCC3)NC(=O)[C@H](CCN)NC(=O)[C@@H](CC(C)C)NC(=O)[C@H](CCCN)NC(=O)[C@H](C(C)C)NC(=O)[C@H](Cc3ccc(-c4ccccc4)cc3)NC(=O)[C@H](CC(C)C)NC2=O)c1 [Compound 1069] ({CH2CO}-Y(Carboxymethyl)Y(Carboxymethyl)D[Phe(3-Me)]L[Bip]V[Orn][dL][Dab][Cha]VSCGK[Aun]-OH; thioether N-14)
12,0.0104,Cc1cccc(C[C@@H]2NC(=O)[C@H](CC(=O)O)NC(=O)[C@H](Cc3ccc(OCC(=O)O)cc3)NC(=O)[C@H](CN)NC(=O)CSC[C@@H](C(=O)N[C@@H](C)C(=O)N[C@@H](CCCCN)C(=O)NCCCCCCCCCCC(=O)O)NC(=O)[C@H]([C@@H](C)O)NC(=O)[C@H](C(C)C)NC(=O)[C@H](CC3CCCCC3)NC(=O)[C@H](CCN)NC(=O)[C@@H](CC(C)C)NC(=O)[C@H](CCCN)NC(=O)[C@H](CCCNC(N)=O)NC(=O)[C@H](Cc3ccc(-c4ccccc4)cc3)NC(=O)[C@H](C(C)C)NC2=O)c1 [Compound 1070] ({CH2CO}-[Dap]Y(Carboxymethyl)D[Phe(3-Me)]V[Bip][Cit][Orn][dL][Dab][Cha]VTCAK[Aun]-OH; thioether N-14)
13,0.0425,Cc1cccc(C[C@@H]2NC(=O)[C@H](CC(=O)O)NC(=O)[C@H](Cc3ccc(OCC(=O)O)cc3)NC(=O)[C@H](Cc3ccc(OCC(=O)O)cc3)NC(=O)CSC[C@@H](C(=O)NCC(=O)N[C@@H](CCCN)C(=O)NCCCCCCCCCCC(=O)O)NC(=O)[C@H](CO)NC(=O)[C@H](C(C)C)NC(=O)[C@H](CC3CCCCC3)NC(=O)[C@H](CCN)NC(=O)[C@@H](CC(C)C)NC(=O)[C@H](CCCN)NC(=O)[C@H](C(C)C)NC(=O)[C@H](Cc3ccc(-c4ccccc4)cc3)NC(=O)[C@H](CC(C)C)NC2=O)c1 [Compound 1071] ({CH2CO}-Y(Carboxymethyl)Y(Carboxymethyl)D[Phe(3-Me)]L[Bip]V[Orn][dL][Dab][Cha]VSCG[Orn][Aun]-OH; thioether N-14)
